Experiments:
F/L-HERc cells = assay: Inhibition of IL-3-dependent proliferation of F/L-HERc cells; assay type: cell-based; conditions: Mus musculus, murine IL-3, 37° C., 48 hours
Excerpt: (§1) In this case, an interleukin-3 (IL-3)-dependent cell line of murine origin was used and was genetically modified in such a way that it expresses functional human EGF-R. Proliferation of these cells, which are called F/L-HERc, can therefore be stimulated either by murine IL-3 or by EGF (see von Ruden, T. et al. in EMBO J. 7, 2749-2756 (1988) and Pierce, J. H. et al. in Science 239, […] (1988)).
(§2) The starting material for the F/L-HERc cells was the cell line FDC-P1 whose preparation has been described by Dexter, T. M. et al. in J. Exp. Med. 152, 1036-1047 (1980). However, it is also possible as an alternative to use other growth factor-dependent cells (see, for example, Pierce, J. H. et al. in Science 239, 628-631 (1988), Shibuya, H. et al. in Cell 70, 57-67 (1992) and Alexander, W. S. et al. in EMBO J. 10, 3683-3691 (1991)). Recombinant retroviruses as described in von Ruden, T. et al., EMBO J. 7, 2749-2756 (1988) Were used for expression of the human EGF-R cDNA (see Ullrich, A. et al. in Nature 309, 418-425 (1984)), with the difference that the retroviral vector LXSN (see Miller, A. D. et al. in BioTechniques 7, 980-990 (1989)) was employed for expression of the EGF-R cDNA, and the line GP+E86 (see Markowitz, D. et al. in J. Virol. 62, 1120-1124 (1988)) was used as packaging cell.
(§3) F/L-HERc cells were cultivated in RPMI/1640 medium (BioWhittaker), supplemented with 10% fetal calf serum (FCS, Boehringer Mannheim), 2 mM glutamine (BioWhittaker), standard antibiotics and 20 ng/ml human EGF (Promega), at 37° C. and 5% CO2. To investigate the inhibitor activity of the compounds according to the invention, 1.5×10^4 cells were cultivated in the above medium (200 μl) per well in triplicates in 96-well plates, stimulating proliferation of the cells either with EGF (20 ng/ml) or with murine IL-3. The source used for IL-3 was culture supernatants from the cell line X63/0 mIL-3 (see Karasuyama, H. et al. in Eur. J. Immunol. 18, 97-104 (1988)). The compounds according to the invention were dissolved in 100% dimethyl sulphoxide (DMSO) and added in various dilutions to the cultures, with the maximum DMSO concentration being 1%. The cultures were incubated at 37° C. for 48 hours.
(§4) To determine the inhibitory activity of the compounds according to the invention, the relative cell count was measured in O.D. units using the Cell Titre 96™ AQueous Non-Radioactive Cell Proliferation Assay (Promega). The relative cell count was calculated as a percent of the control (F/L-HERc cells without inhibitor), and the concentration of active substance which inhibits the proliferation of the cells by 50% (IC50) was inferred.

[1] = tested on: F/L-HERc cells expressing human EGF-R; assay: Inhibition of EGF-dependent proliferation of F/L-HERc cells; assay type: cell-based, murine cell line; human EGF-R; conditions: EGF 20 ng/ml, 37° C., 48 hours
Excerpt: as §1, §2, §3, §4

[2] = tested on: human tumour cell line KB; assay: Inhibition of EGF/TGF-alpha-stimulated KB cell proliferation ([3H]-thymidine incorporation); assay type: cell-based; conditions: TGF-alpha 10 ng/ml or EGF 20 ng/ml, serum-free, 60 hours then [3H]-thymidine 16-18 h
Protocol: KB cells (purchased from ATCC) were passaged in DMEM (BioWhittaker) in the presence of 10% FCS (Boehringer Mannheim), 50 μM beta-mercaptoethanol and standard antibiotics. The EGF-induced DNA synthesis was determined by measuring the incorporation of radioactively labelled thymidine as indicator of EGF/TGF-alpha-stimulated cell proliferation. To do this, the cells were washed twice and 1500 cells per well were plated out in a 96-well plate in 200 μl of IMDM (BioWhittaker) without serum in the presence of 50 μM beta-mercaptoethanol, standard antibiotics, TGF-alpha [10 ng/ml] or EGF [20 ng/ml] and of various concentrations of the substances according to the invention (triplicates, maximum DMSO concentration 1%, see proliferation t t with F/L-HERc cells). After 60 hours, [^3 H]-thymidine (0.1 μCi in 10 μl) was added for about 16-18 h.

IC50 [2] [nM]	SMILES	IC50 (F/L-HERc cells) [nM]	IC50 [1] [nM]
100 to 1000	CC(CN1CCCCC1)Nc1ncc2ncnc(Nc3ccc(F)c(Cl)c3)c2n1 (stereo not drawn) [1(20), 4-[(3-Chloro-4-fluorophenyl)amino]-6-[1-(1-piperidinyl)-2-propylamino]pyrimido[5,4-d]pyrimidine]	> 1000	225
100 to 1000	CCN(CC)CC(C)Nc1ncc2ncnc(Nc3ccc(F)c(Cl)c3)c2n1 (stereo not drawn) [1(21), 4-[(3-Chloro-4-fluorophenyl)amino]-6-[1-(N,N-diethylamino)-2-propylamino]pyrimido[5,4-d]pyrimidine]	> 1000	300
100 to 1000	NCC1CCC(CNc2ncc3ncnc(Nc4ccc(F)c(Cl)c4)c3n2)CC1 (stereo not drawn) [1(22), 4-[(3-Chloro-4-fluorophenyl)amino]-6-[4-(aminomethyl)cyclohexylmethylamino]pyrimido[5,4-d]pyrimidine]	> 1000	43
